Compound | boiling point | log10 Koc (L/kg) | log10 vapour pressure (mmHg) | melting point | ready biodegradability | log10 Henry constant (atm·m³/mol) | log10 Koa | log10 biodegradation half-life (days)
ClCCOCOCCCl | 218 °C | 1.79 | -0.879 | -32 °C | – | – | – | –
CC1CCCC(C)(C)C1=O (stereo not given) | 178 °C | – | – | -31.8 °C | – | – | – | –
COc1ccccc1CCN | 236 °C | – | – | – | – | – | – | –
CN1CCN(C)C1=O | 221 °C | – | – | 8.2 °C | – | – | – | –
c1ccc2c(c1)Cc1ccccc1S2 | 341 °C | – | – | 128 °C | – | – | – | –
CCCCC(C(=O)O)C(=O)N(Nc1ccccc1)c1ccccc1 (stereo not given) | – | – | – | 116 °C | – | – | – | –
O=C(Cl)OCCOCCOC(=O)Cl | 229 °C | – | -2.83 | – | – | – | – | –
C[C@]12CC[C@H]3[C@@H](CCC4=CC(=O)C=C[C@@]43C)[C@@H]1CC[C@H]2O | – | – | – | 165 °C | – | – | – | –
NC1CCC1 | 82 °C | – | – | – | – | – | – | –
ICCCCCI | – | – | – | 9 °C | – | – | – | –
CCN(C=O)CC | 178 °C | – | 0.0821 | – | – | – | – | –
CC#CCC(C)C | 102 °C | – | – | -92.9 °C | – | – | – | –
CCOc1ccc(NC(N)=O)cc1 | – | – | – | 174 °C | – | – | – | –
C=CCCCC=C | – | – | – | -129 °C | – | – | – | –
ClC=CCc1ccccc1 | 211 °C | – | – | – | – | – | – | –
CC(C)(C)CC(C)(C)N | 140 °C | – | – | – | – | – | – | –
Cn1c(=O)ccc2ccccc21 | 325 °C | – | – | 74 °C | – | – | – | –
O=C(CO)c1ccccc1 | – | – | – | 90 °C | – | – | – | –
CC[C@@]12CCCN3CC[C@]4(c5cccc(OC)c5N(C(C)=O)[C@@H]4CC1)[C@H]32 | – | – | – | 208 °C | – | – | – | –
COC(=O)c1sccc1S(=O)(=O)NC(=O)Nc1nc(C)nc(OC)n1 | – | 1.45 | -9.89 | 176 °C | – | – | – | –
CN(C)CCN | 105 °C | – | – | – | not readily biodegradable | – | – | –
CCC(=O)CC(C)=O | 160 °C | – | – | – | – | – | – | –
CCCCCCCCCCCCCCCCCCBr | – | – | -5.23 | 28.2 °C | – | – | – | –

Compound | boiling point | log10 Koc (L/kg) | log10 vapour pressure (mmHg) | melting point | ready biodegradability | log10 Henry constant (atm·m³/mol) | log10 Koa | log10 biodegradation half-life (days)
Cc1ccc(OP(=O)(Oc2ccc(C)cc2)Oc2ccc(C)cc2)cc1 | – | – | – | 77.5 °C | – | – | – | –
NC(=O)CBr | – | – | – | 89 °C | – | – | – | –
Nc1ccccc1 | 184 °C | 1.6 | -0.31 | -6 °C | readily biodegradable | -5.69 | – | –
O=C1CCCCC1 | 155 °C | – | 0.636 | -31 °C | readily biodegradable | -5.05 | – | –
CCCCCCCCCCCC(=O)OCCOC(=O)CCCCCCCCCCC | – | – | – | 56.6 °C | – | – | – | –
S=C(SSSSC(=S)N1CCCCC1)N1CCCCC1 | – | – | – | – | not readily biodegradable | – | – | –
CC(C)(C)c1ccc(C(C)(C)C)o1 | 210 °C | – | – | – | – | – | – | –
Clc1ccc(C(c2ccc(Cl)cc2)C(Cl)(Cl)Cl)cc1 | – | 5.31 | -6.8 | 108 °C | not readily biodegradable | -5.08 | 9.82 | –
OC(CCN1CCCCC1)(c1ccccc1)C1CC2C=CC1C2 (stereo not given) | – | – | – | 114 °C | – | – | – | –
CCOc1cc(OCC)cc(OCC)c1 | – | – | – | 43.5 °C | – | – | – | –
CCc1cc(C(C)(C)C)c(O)c(C(C)(C)C)c1 | 272 °C | – | – | 44 °C | not readily biodegradable | – | – | –
CC1(C)CCCC(=O)C1 | 180 °C | – | – | – | – | – | – | –
CC1(N)CCCC1 | 121 °C | – | – | – | – | – | – | –
C[C@H]1CC=CCC1 | 103 °C | – | – | -116 °C | – | – | – | –
CCCCOc1ccc(C(=O)O)cc1 | – | – | – | 148 °C | – | – | – | –
C=C(C)C(=O)OC(C)(C)C | – | – | – | – | not readily biodegradable | – | – | –
CC(=O)O[C@@H]1C[C@]2(O)[C@H](CC[C@]3(C)[C@@H](c4ccc(=O)oc4)CC[C@@]32O)[C@@]2(C)CC[C@H](O[C@@H]3O[C@H](CO)[C@@H](O)[C@H](O)[C@H]3O)C=C12 | – | – | – | 169 °C | – | – | – | –
CC(N)Cc1ccc(O)cc1 (stereo not given) | – | – | – | 126 °C | – | – | – | –
FC(F)(F)C(Cl)(Cl)Cl | 46.1 °C | – | 2.56 | 14.2 °C | – | – | – | –
CC(C)OC(=O)C1(S(=O)(=O)c2ccc([N+](=O)[O-])cc2)CCCCCC1 | – | – | – | 83.5 °C | – | – | – | –
O=C=Nc1ccc(-c2ccccc2)cc1 | 283 °C | – | – | 56 °C | – | – | – | –
OCC1=CCN2CC[C@@H](O)[C@@H]12 | – | – | – | 120 °C | – | – | – | –
Cn1cnc2ncnc-2c1N | – | – | -11.8 | – | – | – | – | –

Compound | boiling point | log10 Koc (L/kg) | log10 vapour pressure (mmHg) | melting point | ready biodegradability | log10 Henry constant (atm·m³/mol) | log10 Koa | log10 biodegradation half-life (days)
O=C(O)Cc1cn(-c2ccccc2)nc1-c1ccc(Cl)cc1 | – | – | – | 150 °C | – | – | – | –
CCOC(=O)N1CCNCC1 | 237 °C | – | – | – | – | – | – | –
C=C1CC[C@H](O)C/C1=C/C=C1\CCC[C@]2(C)[C@@H]([C@H](C)CCCC(C)C)CC[C@@H]12 | – | – | – | 84.5 °C | – | – | – | –
CCC[N+](=O)[O-] | 131 °C | – | 1 | -108 °C | – | -4.06 | 3.25 | –
[N-]=[N+]=NCC(=O)N[C@H](CO)[C@H](O)c1ccc([N+](=O)[O-])cc1 | – | – | – | 107 °C | – | – | – | –
CCOC(=O)C(c1c(O)c2ccccc2oc1=O)c1c(O)c2ccccc2oc1=O | – | – | – | 154 °C | – | – | – | –
CCc1ccc(C(C)=O)cc1 | – | – | -0.0389 | -20.6 °C | – | – | – | –
C/C(=C/c1ccccc1)CC(N)=O | – | – | – | 133 °C | – | – | – | –
CCOC(=O)COc1cc(Cl)c(Cl)cc1Cl | – | – | – | 64 °C | – | – | – | –
Cc1ccc2ccccc2c1[N+](=O)[O-] | – | – | – | 81.5 °C | – | – | – | –
ClCC(Cl)C(Cl)(Cl)Cl (stereo not given) | 180 °C | – | – | – | – | – | – | –
N#Cc1ccc(C=O)cc1 | – | – | – | 100 °C | – | – | – | –
C[C@]12CC[C@H](O)C[C@H]1CC[C@@H]1[C@@H]2CC[C@]2(C)[C@@H](C3=CC(=O)OC3)CC[C@]12O | – | – | – | 253 °C | – | – | – | –
CCCOCCC | 90 °C | – | 1.8 | -122 °C | – | -2.66 | 2.97 | –
COc1ccc(S)cc1 | 228 °C | – | – | – | – | – | – | –
CCc1cc(C)ccc1C | 187 °C | – | -0.0272 | -53.7 °C | – | – | – | 0.477
C=CC(=O)NC(C)(C)CC(C)=O | – | – | – | 57.5 °C | – | – | – | –
NCCc1ccc(O)c(O)c1 | – | – | – | 128 °C | – | – | – | –
CCOc1ccc(C(=O)O)cc1 | – | – | – | 198 °C | – | – | – | –
ClCC=C(Cl)Cl | 132 °C | – | – | – | – | – | – | –
CCCC(C1CCCCC1)C1CCCCC1 | 293 °C | – | – | -10.5 °C | – | – | – | –
Clc1ccc2ccc(Cl)c(Cl)c2c1 | – | – | – | – | – | – | 7.5 | –
